Several values for one entry are separate records, joined by “and”; a condition that tells them apart may be missing. Equal values may be shown once. Read-outs that look alike come from different tables or passages of the source.

Data set [1] concerns MCF-7. On the set-up: method as in PMID 33721808, PMID 34023640. As to conditions: lead compounds of previous work ref 63, 64, read-out: Cytotoxicity on cancer cells IC50, MCF-7; cited from earlier work.
Data set [2] deals with HepG2. On the set-up: method as in PMID 33721808, PMID 34023640. As to conditions: lead compounds of previous work ref 63, 64, read-out: Cytotoxicity on cancer cells IC50, HepG2; cited from earlier work.
The target of data set [3] is T1, human VEGFR-2 (Homo sapiens, UniProt P35968).
T1 construct: endogenous in cells; host or cells: HepG2
T1 sequence (P35968 20-1356): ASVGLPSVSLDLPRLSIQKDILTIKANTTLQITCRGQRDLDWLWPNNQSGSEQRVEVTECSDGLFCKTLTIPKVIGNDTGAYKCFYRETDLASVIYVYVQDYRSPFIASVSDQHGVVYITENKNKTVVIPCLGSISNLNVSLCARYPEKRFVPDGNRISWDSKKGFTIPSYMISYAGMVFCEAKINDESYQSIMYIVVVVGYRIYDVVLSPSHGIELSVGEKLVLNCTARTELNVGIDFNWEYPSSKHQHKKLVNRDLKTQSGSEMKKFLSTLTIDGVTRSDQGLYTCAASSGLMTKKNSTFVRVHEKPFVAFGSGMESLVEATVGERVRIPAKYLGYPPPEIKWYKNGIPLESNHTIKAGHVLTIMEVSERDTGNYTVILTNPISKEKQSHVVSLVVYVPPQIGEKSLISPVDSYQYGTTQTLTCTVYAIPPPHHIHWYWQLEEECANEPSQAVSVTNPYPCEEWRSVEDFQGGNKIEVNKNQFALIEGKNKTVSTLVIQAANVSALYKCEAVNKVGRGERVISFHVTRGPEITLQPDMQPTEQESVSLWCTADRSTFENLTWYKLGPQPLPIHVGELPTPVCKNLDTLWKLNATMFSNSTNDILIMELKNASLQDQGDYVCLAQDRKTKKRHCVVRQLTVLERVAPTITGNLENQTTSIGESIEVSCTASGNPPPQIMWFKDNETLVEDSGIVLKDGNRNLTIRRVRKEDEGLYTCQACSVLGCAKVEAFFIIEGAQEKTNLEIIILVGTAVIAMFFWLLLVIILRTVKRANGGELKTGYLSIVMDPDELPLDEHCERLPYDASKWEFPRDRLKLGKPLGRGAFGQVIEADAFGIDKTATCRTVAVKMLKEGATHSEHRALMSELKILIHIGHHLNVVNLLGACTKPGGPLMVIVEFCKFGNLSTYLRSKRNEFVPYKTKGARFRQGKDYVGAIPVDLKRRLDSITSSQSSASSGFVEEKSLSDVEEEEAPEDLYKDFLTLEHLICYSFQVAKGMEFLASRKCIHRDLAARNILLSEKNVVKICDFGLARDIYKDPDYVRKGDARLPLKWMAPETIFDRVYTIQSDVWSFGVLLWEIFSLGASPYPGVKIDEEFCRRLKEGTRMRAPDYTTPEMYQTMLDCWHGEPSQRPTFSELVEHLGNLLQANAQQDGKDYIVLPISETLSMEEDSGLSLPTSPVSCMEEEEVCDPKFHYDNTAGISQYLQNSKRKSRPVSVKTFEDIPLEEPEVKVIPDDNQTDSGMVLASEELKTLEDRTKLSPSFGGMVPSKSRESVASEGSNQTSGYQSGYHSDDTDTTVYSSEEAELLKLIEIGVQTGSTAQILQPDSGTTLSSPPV
Also noted: method as in PMID 33721808, PMID 34023640. To be noted: lead compounds of previous work ref 63, 64; cited from earlier work.

Data set [4] concerns HepG2 cells. Kind of data set: Flow cytometry cell cycle analysis. It is filed as cell-based. As to conditions: 4.5 µM, 24 h. The procedure: The cell cycle parameters of the incubated cells were compared with untreated control cells (Table 2 and Figure 4).
For orientation: In flow cytometry, cells or beads pass a laser one at a time.

In data set [5] the test system is HepG2 cells. Kind of data set: Annexin V and PI double staining apoptosis assay. The format is cell-based. As to conditions: 4.5 µM, 24 h. The procedure: As compound 27a produced a high accumulation of HepG2 cells at the G2/M phase, such compound was further investigated for its apoptotic effect using Annexin V and PI double staining assay. In such a procedure, HepG2 cells were treated with compound 27a at a concentration of 4.5 µM and incubated for 24 h.
Apoptosis analysis for compound 27a in HepG2 cells was carried out using Annexin V-FITC as shown in Supplementary Data[30]^,[86].

Data set [6] deals with MCF-7. Kind of data set: MTT anti-proliferative assay, MCF-7. To be noted: Homo sapiens, MCF7; MCF-7, MTT assay; read-out: Cytotoxicity on cancer cells IC50, MCF-7. The format is cell-based. The procedure: (§1) In vitro cytotoxic activities of the synthesised compounds were evaluated against two different cancer cell lines; breast cancer (MCF-7) and hepatocellular carcinoma (HepG2) using standard MTT colorimetric assay as described by Mosmann[78]^,[79]. […].
(§2) The in vitro antiproliferative activities were assessed using the MTT assay protocol[78]^,[79]^,[95]. As shown in Supplementary Data.
On the technique in general: Tetrazolium dyes change colour on reduction, which living cells bring about.

In a further data set the test system is BAX/Bcl-2 ratio. Kind of data set: BAX/Bcl-2 ratio in HepG2 cells (Western blot). The format is cell-based. The procedure:
(§3) In this study, BAX and Bcl-2 expression levels in the HepG2 cell line after the treatment with compound 27a were determined by quantitative Western blotting. […] Also, it decreased the Bcl-2 level by 2-fold less than the control cells. In addition, the BAX/Bcl-2 ratio was increased 5-fold in the treated cells compared to the control cell (Table 4 and Figure 6). Meanwhile, compound 27a increased BAX/Bcl-2 ratio, it could trigger apoptosis in the experienced cells[90]^,[91].
A general note: A western blot detects proteins with antibodies after separation by electrophoresis.

Data set [7] has as its target T1, human VEGFR-2. Kind of data set: In vitro VEGFR-2 enzyme inhibition assay (ELISA kit, HepG2 cell line). As to conditions: human VEGFR-2 in HepG2 cell line. The format is biochemical. The source says: The synthesised compounds were estimated for their in vitro inhibition on human VEGFR-2 in HepG2 cell line; using ELISA kit[96] as described in Supplementary Data.

The test system of another data set is primary rat hepatocytes. Kind of data set: Cytotoxicity against primary rat hepatocytes (normal hepatic cells). It is filed as cell-based. To be noted: HepG2 vs primary rat hepatocytes. The source says:
(§4) It is of high importance for anticancer agents to have minimum side effects on normal cells. […].

Assay in data set [8]: as above
The format is cell-based. To be noted: rat, primary rat hepatocytes.
Description: as §4

The next data set relates to caspase-3. Kind of data set: Active caspase-3 level in HepG2 cells (Western blot). The format is cell-based. As to conditions: 4.5 µM, 24 h.
The test system of the next data set is caspase-9. Kind of data set: Active caspase-9 level in HepG2 cells (Western blot). It is filed as cell-based. To be noted: 4.5 µM, 24 h.
In a further data set the test system is BAX. Kind of data set: BAX expression level in HepG2 cells (Western blot). It is filed as cell-based. On the procedure:
as §3

For data set [9], the system named is HepG2. Kind of data set: MTT anti-proliferative assay, HepG2. It is filed as cell-based. As to conditions: Homo sapiens, read-out: Cytotoxicity on cancer cells IC50, HepG2. On the procedure:
as §1, §2

The next data set has as its system Bcl-2. Kind of data set: Bcl-2 expression level in HepG2 cells (Western blot). The format is cell-based. On the procedure: as §3

What is called IC50 is the concentration that inhibits the measured activity by half. With `O=C(Cn1c(=O)c2nncn2c2ccccc21)Nc1ccc(C(=O)Nc2ccc(Cl)cc2)cc1` [Compound 7], the IC50 is 7.2 µM in the data set with MCF-7 [1] and 4.1 µM in the data set on HepG2 [2].
With `COc1ccc(NC(=O)c2ccc(NC(=O)CSc3nnc4c5nncn5c5ccccc5n34)cc2)cc1` [Compound 8], the concentration for half-maximal inhibition (IC50) in the data set with MCF-7 [1] is 4.4 µM; with HepG2 [2], 3.3 µM; on human VEGFR-2 [3] it was 0.0032 µM.
In the case of `Cc1nc2ccccc2n(CC(=O)Nc2ccc(C(=O)NC(C)(C)C)cc2)c1=O` [Compound 27a, N-(tert-butyl)-4-(2-(3-methyl-2-oxoquinoxalin-1(2H)-yl)acetamido)benzamide], in the data set on HepG2 cells [4], the “Accumulation of cells at G2/M compared to control cells” value is reported as 3.5 fold; the “Cell cycle distribution %G1” value is 37.66% and 37.66 ± 2.16 %; the “Cell cycle distribution %G2/M” value was 34.14% and 34.14 ± 1.22 %; the “Cell cycle distribution %S” value is 26.96% and 26.96 ± 1.55%. In addition, the “Cell cycle distribution %Sub-G1” value with HepG2 cells [4] was 1.24% and 1.24 ± 0.17%. Also, in the data set with HepG2 cells [5], the “Apoptosis, Early (right bottom)” value was 40.47% and 40.47 ± 2.55 %; the “Apoptosis, Late (right top)” value is 0.35% and 0.35 ± 0.06%; the “Increase of apoptosis compared to untreated cells” value is listed as “about five times”; the “Necrosis (left top)” value worked out at 0.20 ± 0.04. In the data set with HepG2 cells [5], the “Viable (left bottom)” value stood at 58.98 ± 2.64. In the data set with MCF-7 [6], the IC50 is 7.7 µM. In addition, the “Increase of BAX/Bcl-2 ratio compared to control cells” value in the data set with BAX/Bcl-2 ratio is given as 5 fold. Further, the “Protein expression (normalised to β-actin), BAX/Bcl-2 ratio” value with BAX/Bcl-2 ratio (24 h, control = 1.00) is 5.03 ± 0.36. Further, at human VEGFR-2 [7], half-maximal inhibition (IC50) was put at 0.0032 µM. In addition, the “Cytotoxic activity against cancer HepG2 cell line more than against normal hepatic cells” value in the data set with primary rat hepatocytes was determined as 4.5 fold. This compound also returned an IC50 in data set [8] of 19.9 µM. The “Increase in the level of caspase-3 compared to control cells” value with caspase-3 is on record as 2.5 fold. In the data set with caspase-3 (control = 1.00), the “Protein expression (normalised to β-actin), Caspases-3” value is given as 2.51 ± 0.27. In addition, the “Increase in the level of caspase-9 compared to control cells” value in the data set with caspase-9 is 3.43 fold. The “Protein expression (normalised to β-actin), Caspases-9” value in the data set with caspase-9 (control = 1.00) came to 3.43 ± 0.49. The “Increase in the BAX level compared to control cells” value in the data set with BAX was determined as 2.6 fold. Further, in the data set on BAX (24 h, control = 1.00), the “Protein expression (normalised to β-actin), BAX” value is listed as 2.60 ± 0.20. Also, the IC50 with HepG2 [9] came out at 4.5 µM. Further, the “Decrease in the Bcl-2 level compared to control cells” value in the data set with Bcl-2 was determined as 2 fold. In addition, the “Protein expression (normalised to β-actin), Bcl-2” value in the data set on Bcl-2 (24 h, control = 1.00) is on record as 0.52 ± 0.02.

The values above are taken from PMC8344243, “Design, synthesis, docking, ADMET studies, and anticancer evaluation of new 3-methylquinoxaline derivatives as VEGFR-2 inhibitors and apoptosis inducers” (Journal of Enzyme Inhibition and Medicinal Chemistry, 2021).
